{
  "source": "paper PMC7948422",
  "about": "“Repurposing p97 inhibitors for chemical modulation of the bacterial ClpB–DnaK bichaperone system” (The Journal of Biological Chemistry, 2020)",
  "key": {"E. coli dnaK756": {"test_system": "E. coli dnaK756", "test": "Bacterial viability, dnaK756", "assay_type": "cell-based, Escherichia coli", "conditions": "45 °C", "experimental": "(§1) E. coli MC4100, MC4100ΔclpB, dnaK103, and dnaK756 strains were used to determine an influence of DBeQ on bacterial growth and viability. Bacteria were maintained in the LB media, and in the case of the MC4100ΔclpB strain, LB was supplemented with 30 μg/ml kanamycin. All experiments were initiated by preparing overnight cultures inoculated from single colonies and grown at 37 °C. The dnaK103 and dnaK756 overnight cultures were grown at 30 °C. On the following day, the cultures were diluted 100-fold in 10 ml of LB without antibiotics and incubated at 37 °C. The culture optical density was monitored at 600 nm. When absorbance at 600 nm reached 0.4, the culture was divided into 1-ml aliquots and supplemented with 10 μl of DMSO or different concentrations of DBeQ in DMSO. The samples were immediately transferred into an incubator/shaker at temperature 37, 45, or 50 °C. Bacteria were cultured for up to 4 h with shaking (200 RPM). At specific time points, 100 μl of each culture was withdrawn and serially diluted in sterile 0.9% NaCl up to 10^6-fold dilution. To estimate the number of viable cells, 5 μl or 10 μl of the diluted cultures was spread on the LB-agar plate without an antibiotic. […] On the following day, the bacterial colonies were counted and the colony-forming units/ml were calculated."}, "DnaK–DnaJ–GrpE (KJE)": {"biological_target": "T1, DnaK–DnaJ–GrpE (KJE) (Escherichia coli, UniProt P0A6Y8)", "T1 construct": "full-length E. coli DnaK (residues 1–638); made in house; host or cells: E. coli BL21(DE3) for DnaK", "T1 sequence (P0A6Y8 whole entry, the tested form may be a part)": "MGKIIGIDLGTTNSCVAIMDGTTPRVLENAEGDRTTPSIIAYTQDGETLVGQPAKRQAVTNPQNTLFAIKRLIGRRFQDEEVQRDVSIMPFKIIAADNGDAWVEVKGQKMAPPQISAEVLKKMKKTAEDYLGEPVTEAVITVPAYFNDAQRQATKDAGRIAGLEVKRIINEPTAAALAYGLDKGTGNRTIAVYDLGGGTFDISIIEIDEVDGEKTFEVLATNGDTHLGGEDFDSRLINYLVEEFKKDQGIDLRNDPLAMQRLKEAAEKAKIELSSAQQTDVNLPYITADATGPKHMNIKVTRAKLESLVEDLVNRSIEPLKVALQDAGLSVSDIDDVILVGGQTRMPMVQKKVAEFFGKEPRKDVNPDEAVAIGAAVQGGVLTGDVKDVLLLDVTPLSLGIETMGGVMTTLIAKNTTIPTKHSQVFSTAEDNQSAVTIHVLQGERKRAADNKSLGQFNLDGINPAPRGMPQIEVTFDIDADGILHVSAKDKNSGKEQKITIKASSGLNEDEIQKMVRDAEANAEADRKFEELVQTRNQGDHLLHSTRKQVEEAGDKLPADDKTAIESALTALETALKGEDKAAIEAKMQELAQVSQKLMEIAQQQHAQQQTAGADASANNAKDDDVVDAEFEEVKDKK", "test": "Aggregate reactivation assay with KJE alone", "assay_type": "biochemical", "experimental": "G6PDH was chemically denatured by mixing 5 μl of the G6PDH stock solution (441 μM) with 5 μl of buffer A (10 M urea, 16% glycerol, 40-mM DTT) preheated at 47 °C. The samples of G6PDH in buffer A were incubated for 5 min at 47 °C. Subsequently, 5 μl of denatured G6PDH was mixed with 95 μl of buffer B (50-mM Tris-HCl, pH 7.4, 20-mM Mg(OAc)2, 30-mM KCl, 1-mM EDTA, 1-mM β-mercaptoethanol) preheated at 47 °C to initiate protein refolding, which, under these conditions, is inefficient and leads to misfolding and aggregation of G6PDH ([69]). G6PDH aggregate production was arrested after 1 min (for refolding by KJE) or 15 min (for refolding by KJE with ClpB) by transferring into ice for 2 min. […] The plate was inserted into Synergy H1 plate reader (BioTek, Winooski, VT) with the chamber temperature at 30 °C, and the sample absorbance at 340 nm was measured after 10 min. The amount of NADPH produced was calculated based on the NADPH molar extinction coefficient, Ɛ340 = 6220 [M^−1 ⋅ cm^−1].\n(§2) Firefly luciferase (220 μM) was diluted 300-fold in PBS buffer with 1 mg/ml bovine serum albumin and then incubated for 12 min at 45 °C. […] Luminescence was measured using Synergy H1 plate reader (BioTek, Winooski, VT)."}, "[1]": {"biological_target": "T2, ClpB–DnaK bichaperone system (DnaK–DnaJ–GrpE + ClpB) (Escherichia coli, UniProt P0A6Y8+P63284)", "T2 construct": "full-length E. coli DnaK (residues 1–638); made in house; host or cells: E. coli BL21(DE3) for DnaK", "T2 sequence (P63284 whole entry, the tested form may be a part)": "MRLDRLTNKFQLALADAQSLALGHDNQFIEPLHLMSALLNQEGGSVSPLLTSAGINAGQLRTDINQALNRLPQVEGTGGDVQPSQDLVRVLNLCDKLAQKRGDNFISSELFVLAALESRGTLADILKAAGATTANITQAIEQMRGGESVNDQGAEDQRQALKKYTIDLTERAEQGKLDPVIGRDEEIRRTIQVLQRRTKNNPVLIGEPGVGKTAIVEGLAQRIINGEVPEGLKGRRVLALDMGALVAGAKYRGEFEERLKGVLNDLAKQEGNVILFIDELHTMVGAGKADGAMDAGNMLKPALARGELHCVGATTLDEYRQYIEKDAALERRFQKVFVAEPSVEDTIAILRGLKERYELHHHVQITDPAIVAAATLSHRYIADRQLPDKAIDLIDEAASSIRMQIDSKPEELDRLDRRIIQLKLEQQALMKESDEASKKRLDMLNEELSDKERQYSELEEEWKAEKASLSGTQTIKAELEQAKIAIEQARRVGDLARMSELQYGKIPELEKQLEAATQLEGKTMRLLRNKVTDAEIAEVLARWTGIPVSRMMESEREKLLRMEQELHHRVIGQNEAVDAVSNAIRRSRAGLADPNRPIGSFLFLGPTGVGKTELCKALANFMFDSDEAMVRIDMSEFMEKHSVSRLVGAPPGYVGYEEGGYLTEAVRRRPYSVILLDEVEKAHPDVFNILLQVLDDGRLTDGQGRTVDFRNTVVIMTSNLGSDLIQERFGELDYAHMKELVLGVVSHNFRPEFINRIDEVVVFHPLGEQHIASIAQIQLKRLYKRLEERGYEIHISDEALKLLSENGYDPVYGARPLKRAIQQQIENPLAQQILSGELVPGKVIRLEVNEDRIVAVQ", "T2 sequence (P0A6Y8 whole entry, the tested form may be a part)": "as the sequence (P0A6Y8 whole entry, the tested form may be a part) above", "test": "Aggregate reactivation assay with KJE + ClpB", "assay_type": "biochemical", "experimental": "G6PDH was chemically denatured by mixing 5 μl of the G6PDH stock solution (441 μM) with 5 μl of buffer A (10 M urea, 16% glycerol, 40-mM DTT) preheated at 47 °C. The samples of G6PDH in buffer A were incubated for 5 min at 47 °C. Subsequently, 5 μl of denatured G6PDH was mixed with 95 μl of buffer B (50-mM Tris-HCl, pH 7.4, 20-mM Mg(OAc)2, 30-mM KCl, 1-mM EDTA, 1-mM β-mercaptoethanol) preheated at 47 °C to initiate protein refolding, which, under these conditions, is inefficient and leads to misfolding and aggregation of G6PDH ([69]). G6PDH aggregate production was arrested after 1 min (for refolding by KJE) or 15 min (for refolding by KJE with ClpB) by transferring into ice for 2 min. To observe the aggregate reactivation, aggregated G6PDH was diluted 10-fold in buffer C (50-mM Tris-HCl, pH 7.4, 20-mM MgCl2, 1-mM EDTA, 0.5-mM TCEP) containing the chaperones KJE (5.5-μM DnaK, 1.1-μM DnaJ, 1.1-μM GrpE) or KJE-ClpB (5.5-μM DnaK, 1.1-μM DnaJ, 1.1-μM GrpE, 1.65-μM ClpB (hexamer)). G6PDH in buffer C without chaperones was used as a control for a spontaneous aggregate reactivation. The chaperone-G6PDH samples (18 μl) were supplemented with 1 μl of DBeQ in DMSO or pure DMSO as a control. The samples were incubated for 2 min at 30 °C. The aggregate reactivation was initiated by adding 1 μl of 100-mM ATP, followed by incubation for 60 min at 30 °C. […] The plate was inserted into Synergy H1 plate reader (BioTek, Winooski, VT) with the chamber temperature at 30 °C, and the sample absorbance at 340 nm was measured after 10 min. The amount of NADPH produced was calculated based on the NADPH molar extinction coefficient, Ɛ340 = 6220 [M^−1 ⋅ cm^−1].\nas §2"}, "E. coli dnaK103": {"test_system": "E. coli dnaK103", "test": "Bacterial viability, dnaK103", "assay_type": "cell-based, Escherichia coli", "conditions": "45 °C", "experimental": "as §1"}, "[2]": {"set-up": "method as in PMID 21383145", "conditions": "cited from earlier work"}},
  "data": [
    {"smiles": "c1ccc(CNc2nc(NCc3ccccc3)c3ccccc3n2)cc1", "note": "[DBeQ, N^2,N^4-dibenzylquinazoline-2,4-diamine]", "values": [
      {"measurement": "effect on viability of dnaK756", "setting": "E. coli dnaK756", "result": "not affected"},
      {"measurement": "inhibition of DnaK chaperone activity in vitro", "setting": "DnaK–DnaJ–GrpE (KJE)", "result": "inhibited"},
      {"measurement": "inhibition of ClpB-independent reactivation of aggregated luciferase", "setting": "DnaK–DnaJ–GrpE (KJE); KJE alone, 20 min, 25 °C", "result": "inhibited"},
      {"measurement": "IC50", "setting": "[1]", "result": "~5", "unit": "µM"},
      {"measurement": "inhibition of ClpB-dependent reactivation of aggregated luciferase", "setting": "[1]; KJE + ClpB, 20 min, 25 °C", "result": "inhibited"},
      {"measurement": "inhibition of ClpB-dependent reactivation of aggregated G6PDH", "setting": "[1]; KJE + ClpB, 60 min, 30 °C, compared with KJE alone", "result": "inhibited by DBeQ with a several-fold lower IC50 than ClpB-independent reactivation by KJE alone"},
      {"measurement": "effect on viability of dnaK103", "setting": "E. coli dnaK103", "result": "suppressed viability"},
      {"measurement": "solubility in aqueous buffers", "setting": "[2]", "result": "limited"}
    ]}
  ]
}
